Measurements taken from patent US12570975B2, “Composition for diagnosis or treatment of a condition associated with increased activity of EIF4E comprising an EIF4E inhibitor” (SoVarGen Co., Ltd., priority 2019, dated 2026).

Key:
ADK, IRSp53, and CREB1 = assay: Immunofluorescence of ADK, IRSp53 and CREB1 after ASO injection; assay type: in vivo, mouse; settings: week 4-5 after ICV injection
Procedure: Week 4-5 after intracerebroventricular injection of ASO into the animal models established using pCIG-mTOR mutant-IRES-EGFP vector of Example 1, the brain was removed, fixed, sectioned, and immunostained.
Immunostaining with antibodies against ADK, CREB1, IRSp53, and eIF4E and Imaging with fluorescence were conducted in the same manner as in Example 2.

[1] = test system: FMCD and epilepsy animal models (mTOR-p.C1483Y, mTOR-p.L2427P); assay: Light & dark box test, FMCD epilepsy models; assay type: in vivo, mouse; settings: ASO-eIF4E models compared to ASO-control models
Procedure: (§1) Behaviors were recorded and analyzed using EthoVision XT (Noldus).
(§2) Experiments were performed on the FMCD and epilepsy animal models (mTOR-p.C1483Y, mTOR-p.L2427P) of Example 7-1 and the control normal animal models (mTOR-WT). The same sheIF4E as that described in Example 2 was used. Week 2 after sheIF4E injection, the handling was performed in the animals. Week 3 after sheIF4E injection, the animals were subjected to the behavioral tests.
(§3) The epilepsy animal models were subjected to the substantially same behavioral abnormality assay as in Example 6. The results are depicted in FIGS. 28 and 29.
(§4) Briefly, ASO #77 was administered by ICV injection to the FMCD and epilepsy animal models were generated with the pCIG-mTOR mutant-IRES-EGFP of Example 1. ASO #77 was evaluated for therapeutic potential for neuropsychiatric disorder accompanying the FMCD epilepsy animal models in the substantially same manner as in Example 6.

C57BL/6J mice [2] = settings: in vivo
[3] = test system: FMCD and epilepsy animal models (mTOR-p.C1483Y, mTOR-p.L2427P); assay: Sucrose preference test, FMCD epilepsy models; assay type: in vivo, mouse; settings: ASO-eIF4E models compared to ASO-control models
Procedure: Each of mice was habituated for 3-5 days in a cage with two selectable water bottles presented. Thereafter, the mice were each placed in the same cage as the habituation cage at the day of experiment. The mice were presented with two dual bottles, one containing tap water and the other containing 1% sucrose solution. Water and sucrose solution intake was measured after 24 hours and sucrose preference was calculated according to volume of sucrose intake/total volume of fluid intake×100%.
The same sheIF4E as that described in Example 2 was used. Week 2 after sheIF4E injection, the handling was performed in the animals. Week 3 after sheIF4E injection, the animals were subjected to the behavioral tests.
The epilepsy animal models were subjected to the substantially same behavioral abnormality assay as in Example 6.
as §4

[4] = test system: FMCD and epilepsy animal models (mTOR-p.C1483Y, mTOR-p.L2427P); assay type: in vivo, mouse
Procedure: as §1, §2, §3, §4

male mice = assay: Repeated dose toxicity assay by subcutaneous injection; assay type: in vivo, mouse; settings: subcutaneous 100 mg/kg, seven times within a month
Procedure: ASO #16, #21, #27, #35, #75, #77, and #89 selected in Example 4 were each assayed for repeated dose toxicity by subcutaneous injection.
Repeated dose toxicity assay of the […] was conducted by Biotoxtech Co., Ltd. In repeated dose toxicity assay, each ASO sequence was subcutaneously injected at a dose of 100 mg/kg to groups of four male mice seven times in total within a month (days 1, 3, 5, 7, 14, 21, and 28). Two days after the last injection, histopathologic observations were made.

eIF4E = eIF4E expression in cerebral cortex, cerebellum and spinal cord after ICV injection of ASO; settings: mouse, in vivo
Text: Each of panels B to D of FIG. 17 and panels E and F of FIG. 18 represents “normal mice”, whereas panel A of FIG. 17 and panels G and H of FIG. 18 represents “FMCD animal models.”
For this experiment, animal models established using pCIG-mTOR p.C1483Y-IRES-EGFP and pCIG-mTOR p.L2427P-IRES-EGFP of Example 1 were used while animal models established with pCIG-mTOR (WT)-IRES-EGFP […] served as a control. The ASOs were each intracerebroventricularly injected (ICV injection) at a dose of 100-500 μg to the brains of the mice that had been identified to undergo epileptic seizure. From day 3 after ASO injection to up to day 70, 12-hour video were recorded for seizure monitoring 2-3 times a week per mouse.
After intraventricular injection of the ASO candidates to the animal models, eIF4E expression was reduced in the cerebral cortex, the cerebellum, and the spinal cord, with the consequent reduction in seizure frequency.

eIF4E mRNA = assay: ASO screening by real-time PCR (eIF4E mRNA, HEK293T); assay type: cell-based, human; settings: relative to ASO #75
Procedure: In an alternative approach for screening the designed ASO candidates, the human cell line HEK293T cells (human) were cultured on 96-well culture plates for 24 hours and then transfected with ASO candidates with the aid of iN-fect™ transfection reagent (INTRON, 15081). Twenty four hours after transfection, the cells were harvested and subjected to lysis and RNA extraction using SuperPrep™ II Cell Lysis & RT Kit reagent (Toyobo, SCQ-401). From the RNA thus obtained, cDNA was synthesized by reverse transcription PCR. Real-time PCR was performed in CXF384 Touch™ Real-Time System (Bio-Rad) with SYBR® green real-time PCR master mix (Toyobo, QPK-201). Forward and reverse PCR primer sequences for eIF4E and GAPDH are as follows:
The real-time PCR conditions in the CXF384_Touch™ Real-Time System were as follows: 95° C. for 1 min, then 95° C. for 15 sec, 59.5° C. for 20 sec, and 72° C. for 30 sec for 39 cycles. Each sample was analyzed in triplicates. […] FIGS. 16b and 16c are graphs in which relative eIF4E expression levels are quantitatively expressed as ratios compared to the GAPDH expression level in HEK293T cells treated with ASO candidates.

C57BL/6J mice [5] = settings: male or female mice injected with ASO
C57BL/6J mice [6] = settings: mouse, in vivo
[7] = over 8 weeks after ASO injection, 8-week-old mTOR mutation C57BL/6J mice
[8] = test system: FMCD and epilepsy animal models (mTOR-p.C1483Y, mTOR-p.L2427P); assay: Social avoidance test, FMCD epilepsy models; assay type: in vivo, mouse; settings: ASO-eIF4E models compared to ASO-control models
Procedure: The arena was a black box (400×400 mm).
as §2, §3, §4

Substance: ASO #77: eIF4E-targeting antisense oligonucleotide of SEQ ID NO: 77, 2′-MOE gapmer, all phosphorothioate linkages (antisense GATCCTTCACCAATGTTACA; all phosphorothioate, sugars by position and methylation of C not given here; 2'-MOE gapmer)
- expression of ADK, IRSp53, and CREB1 in the mutation cells (ADK, IRSp53, and CREB1): rescue of the expression of ADK, IRSp53, and CREB1 to a normal level
- time spent in center (residence time within the light box) [1]: increased
- time spent to interact with the stranger mouse (index of sociality and depression) (C57BL/6J mice [2]): not changed
- % sucrose preference [3]: increased
- time spent in center (index of anxiety) ([4]; ASO-eIF4E models compared to ASO-control models): increased
- dyskinesia (behavior test) ([4]; mouse, in vivo): no dyskinesia
- dead or moribund animals (male mice): No dead or moribund animals
- eIF4E expression in animal models (eIF4E): reduce eIF4E expression
- Expression level of eIF4E(%) compared to ASO#75 (eIF4E mRNA): 121%
- % sucrose preference (C57BL/6J mice [5]): not changed
- time spent in center (residence time within the light box) (C57BL/6J mice [6]): not changed
- body weight [7]: recovered to normal conditions
- time spent to interact with the stranger mouse (social ability and depression) [8]: increased
